# Measured values reported in patent US10494380B2, “Nitrogen-containing tricyclic derivatives having HIV replication inhibitory activity” (priority 2015, dated 2019).
# Where two headings read alike, the source gives them in different places.
# Tests used:
# HIV (HTLV-IIIB strain) = test: HIV replication inhibition assay (Test Example 1; MT-4 cells, MTT); format: cell-based; details: MT-4 cells, MTT; for EC50: read-out: EC50; for EC90: read-out: EC90
# Summary of the method: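 MT-4 cells (2.5×10^4/well) were infected with HIV HTLV-IIIB (60 pfu) in the presence of compound and cultured 4 days at 37 °C. Cell viability was read by MTT reduction (OD 560/690 nm). EC50 and EC90 are the concentrations inhibiting virus-induced cytotoxicity by 50% and 90%.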
# [1] = tested on: T125A mutant virus (HIV-1 NL-432 recombinant molecular clone, IN gene); test: HIV replication inhibition assay against integrase 124/125 mutant virus (Test Example 2); format: cell-based
# Summary of the method: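 MT-4 cells (2.5×10^4 per well) infected with 60 pfu of 293T-derived HIV-1 NL-432 clone carrying integrase 124/125 point mutations, in presence of compound, cultured 4 days at 37 °C. Viability by MTT formazan at 560/690 nm; EC50 = concentration inhibiting 50% of virus-induced cytotoxicity.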
# HIV = format: cell-based; details: EC50 in the presence of human serum (25%) versus without human serum, MT-4 cells
# Summary of the method: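 Compound is preincubated 1 h at room temperature with human serum, or with medium alone as the serum-free control. MT-4 cells infected with HIV (1 h, 37° C) are added and cultured 4 days. EC50 is determined with and without serum; their ratio gives the potency shift.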
# CYP2C9 = CYP2C9 (Homo sapiens (Human), UniProt P11712); test: CYP inhibition assay, tolbutamide methyl-hydroxylation (Test Example 4); format: in vitro ADME; details: pooled human hepatic microsome, 100 μmol/L tolbutamide, 15 minutes, 37° C.
# Description: Using commercially available pooled human hepatic microsome, and employing, as markers, 7-ethoxyresorufin O-deethylation (CYP1A2), tolbutamide methyl-hydroxylation (CYP2C9), mephenytoin 4′-hydroxylation (CYP2C19), dextromethorphan O-demethylation (CYP2D6), and terfenadine hydroxylation (CYP3A4) as typical substrate metabolism reactions of human main five CYP enzyme forms (CYP1A2, 2C9, 2C19, 2D6, 3A4) an inhibitory degree of each metabolite production amount by a test compound was assessed.
# The reaction conditions were as follows: substrate, 0.5 μmol/L ethoxyresorufin (CYP1A2), 100 μmol/L tolbutamide (CYP2C9), 50 μmol/L S-mephenytoin (CYP2C19), 5 μmol/L dextromethorphan (CYP2D6), 1 μmol/L terfenedine (CYP3A4); reaction time, 15 minutes; reaction temperature, 37° C.; enzyme, pooled human hepatic microsome 0.2 mg protein/mL; test drug concentration, 1, 5, 10, 20 μmol/L (four points).
# Each five kinds of substrates, human hepatic microsome, and a test drug in 50 mmol/L Hepes buffer as a reaction solution was added to a 96-well plate as the composition ad described above, NADPH, as a coenzyme was added to initiate metabolism reactions as markers and, after the incubation at 37° C. for 15 minutes, a methanol/acetonitrile=1/1 (V/V) solution was added to stop the reaction. After the centrifugation at 3000 rpm for 15 minutes, resorufin (CYP1A2 metabolite) in the supernatant was quantified by a fluorescent multilabel counter and tolbutamide hydroxide (CYP2C9 metabolite), mephenytoin 4′ hydroxide (CYP2C19 metabolite), dextrorphan (CYP2D6 metabolite), and terfenadine alcohol (CYP3A4 metabolite) were quantified by LC/MS/MS.
# [2] = tested on: sheep red blood cells (RBC); test: Photohemolysis test (Test Example 13); format: cell-based; details: 0.0008 to 0.1 w/v %, 10 J/cm2 UV-irradiation (290-400 nm)
# Source text: Aliquots of sheep red blood cells (RBC) suspension prepared with medium to make a 2.5 v/v % concentration are dispensed into microplates. The compound of the present invention was desolved with a vehicle to make target concentrations and then these solutions were immediately added (in concentrations of 0.0008 to 0.1 w/v %) into the microplates. The mixtures on the microplates were exposed to 10 J/cm2 of UV-irradiation (UV-A and UV-B, 290-400 nm) with a GL20SE lamp (SANKYO DENKI) and a FL20S-BLB lamp (Panasonic). After the UV-irradiation, the mixtures were centrifuged. Aliquots of supernatant were transferred to a microplate. Absorbance of the supernatants was measured at 540 nm and 630 nm for judgement of the potential of phototoxicity. In the study, two endpoints were evaluated in biomembrane impairment (% of photohemolysis index; PI) and hyperoxidation of lipid membrane (methemoglobin formation; met-Hb) with the absorbance at 540 nm and 630 nm, respectively. PI and met-Hb were assessed based on the negative criteria (−), PI<10% and changes in absorbance at 630 nm<0.05, respectively. All else was judged as positive (+).
# CYP3A4 = CYP3A4 (Homo sapiens (Human), UniProt P08684); test: CYP3A4 (MDZ) MBI test (Test Example 6); details: pooled human liver microsomes, midazolam 1-hydroxylation, preincubation 0 or 30 min
# [3] = Human immunodeficiency virus 1, MT4, 96 h, HIV (HTLV-IIIB strain), four days
# [4] = Human immunodeficiency virus 1, MT4, read-out: EC50 against T125A mutant virus, T125A mutant virus (HIV-1 NL-432 IN gene), MT-4 cells, MTT
# [5] = HIV (HTLV-IIIB strain), four days
# [6] = HIV HTLV-IIIB strain, cultured four days
# [7] = T125A mutant virus (HIV-1 NL-432 IN gene), MT-4 cells, MTT, read-out: EC50 against T125A mutant virus
# Sequence of CYP3A4 (P08684 whole entry): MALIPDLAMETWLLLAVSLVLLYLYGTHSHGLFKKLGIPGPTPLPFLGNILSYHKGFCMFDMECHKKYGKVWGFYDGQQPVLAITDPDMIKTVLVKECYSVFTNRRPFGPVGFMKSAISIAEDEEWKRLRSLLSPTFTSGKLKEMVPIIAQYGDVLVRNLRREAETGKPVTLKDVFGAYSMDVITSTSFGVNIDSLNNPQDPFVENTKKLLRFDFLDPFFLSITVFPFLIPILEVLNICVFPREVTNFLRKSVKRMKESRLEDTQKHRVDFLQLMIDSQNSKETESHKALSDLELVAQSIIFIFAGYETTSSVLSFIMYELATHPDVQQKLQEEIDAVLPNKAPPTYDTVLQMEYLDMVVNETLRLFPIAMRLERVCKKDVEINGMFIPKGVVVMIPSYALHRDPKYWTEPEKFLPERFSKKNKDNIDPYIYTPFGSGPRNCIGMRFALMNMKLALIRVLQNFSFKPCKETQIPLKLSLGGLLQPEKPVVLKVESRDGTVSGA
# Sequence of CYP2C9 (P11712 whole entry): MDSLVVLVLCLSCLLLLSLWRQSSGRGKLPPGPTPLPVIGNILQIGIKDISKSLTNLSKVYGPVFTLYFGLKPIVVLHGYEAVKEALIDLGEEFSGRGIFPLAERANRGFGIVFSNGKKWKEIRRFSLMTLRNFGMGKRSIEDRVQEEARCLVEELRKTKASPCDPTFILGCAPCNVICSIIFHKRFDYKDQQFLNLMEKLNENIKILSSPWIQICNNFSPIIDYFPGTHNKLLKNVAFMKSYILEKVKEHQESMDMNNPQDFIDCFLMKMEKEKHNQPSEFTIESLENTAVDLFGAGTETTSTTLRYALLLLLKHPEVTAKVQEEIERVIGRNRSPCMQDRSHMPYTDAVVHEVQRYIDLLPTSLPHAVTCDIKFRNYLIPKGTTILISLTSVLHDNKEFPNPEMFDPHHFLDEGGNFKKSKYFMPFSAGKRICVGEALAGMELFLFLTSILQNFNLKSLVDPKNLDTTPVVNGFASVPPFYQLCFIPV
SMILES,EC50 (HIV (HTLV-IIIB strain); [3]) [nM],EC90 (HIV (HTLV-IIIB strain); [3]) [nM],"EC50 [1, 4] [nM]",Potency shift value (HIV),IC50 (CYP2C9) [nM],"Photohemolysis test, potential of phototoxicity (PI and met-Hb) [2]","CYP3A4 (MDZ) MBI, shifted IC (CYP3A4)",EC90 (HIV (HTLV-IIIB strain); [5]) [nM],EC50 (HIV (HTLV-IIIB strain); [6]) [nM],"EC50 [1, 7] [nM]",EC50 (HIV (HTLV-IIIB strain); [5]) [nM],"EC50 (HIV (HTLV-IIIB strain); Human immunodeficiency virus 1, MT4, 96 h, HIV HTLV-IIIB strain, cultured four days) [nM]"
Cc1ccc(-c2c([C@H](OC(C)(C)C)C(=O)O)c(C)c3c4c2cc(C)n4CCN3c2ncc(O[C@H]3CCN(C)C3)cn2)cc1 [Compound I-270],4.5,7.5,13,3.8,> 20000,"(−) (negative criteria (−), PI<10% and changes in absorbance at 630 nm<0.05, respectively)","(−) (When a shifted IC was 1.0 or less, this was defined as negative)",,,,,
Cc1c([C@H](OC(C)(C)C)C(=O)O)c(-c2ccc(Cl)cc2)c2cc(C)n3c2c1N(c1ncc(OCCCN(C)C)cn1)CC3 [Compound I-257],7.4,8.1,28,4,> 20000,"(−) (negative criteria (−), PI<10% and changes in absorbance at 630 nm<0.05, respectively)","(−) (When a shifted IC was 1.0 or less, this was defined as negative)",,,,,
Cc1ccc(-c2c([C@H](OC(C)(C)C)C(=O)O)c(Cl)c3c4c2cc(C)n4CCN3C)cc1 [Compound I-187],,,,11,,,"(−) (When a shifted IC was 1.0 or less, this was defined as negative)",2.2,1,4.8,,
CCOc1cnc(N2CCn3c(C)cc4c(-c5ccc(C)cc5)c([C@H](OC(C)(C)C)C(=O)O)c(C)c2c43)nc1 [Compound I-197],1.3,2.2,,32,> 20000,"(−) (negative criteria (−), PI<10% and changes in absorbance at 630 nm<0.05, respectively)",,,,,,
Cc1c([C@H](OC(C)(C)C)C(=O)O)c(-c2ccc(Cl)cc2)c2cc(C)n3c2c1N(c1ncc2ccccc2n1)CC3 [Compound I-157],,,12,12,> 20000,,"(−) (When a shifted IC was 1.0 or less, this was defined as negative)",,,,,
Cc1c([C@H](OC(C)(C)C)C(=O)O)c(-c2ccc(Cl)cc2)c2cc(C)n3c2c1N(C)CC3 [Compound I-012],0.77,1.1,3.8,13,,"(−) (negative criteria (−), PI<10% and changes in absorbance at 630 nm<0.05, respectively)",,,,,,
Cc1ccc(-c2c([C@H](OC(C)(C)C)C(=O)O)c(C)c3c4c2cc(C)n4CCN3S(C)(=O)=O)cc1 [Compound I-003],1.3,1.7,8.9,14,,"(−) (negative criteria (−), PI<10% and changes in absorbance at 630 nm<0.05, respectively)","(−) (When a shifted IC was 1.0 or less, this was defined as negative)",,,,,
Cc1c([C@H](OC(C)(C)C)C(=O)O)c(-c2ccc(Cl)cc2)c2cc(C)n3c2c1N(CCN(C)C)[C@H](C)C3 [Compound I-112],4.9,11,18,3.5,> 20000,"(−) (negative criteria (−), PI<10% and changes in absorbance at 630 nm<0.05, respectively)",,,,,,
Cc1c([C@H](OC(C)(C)C)C(=O)O)c(-c2ccc(F)cc2)c2cc(C)n3c2c1N(C)CC3 [Compound I-048],1.2,1.5,11,9.2,> 20000,"(−) (negative criteria (−), PI<10% and changes in absorbance at 630 nm<0.05, respectively)",,,,,,
Cc1c([C@H](OC(C)(C)C)C(=O)O)c(-c2ccc(Cl)cc2)c2cc(C)n3c2c1N(c1ncccn1)CC3 [Compound I-085],,,,22,,"(−) (negative criteria (−), PI<10% and changes in absorbance at 630 nm<0.05, respectively)",,0.58,,3.7,0.54,
Cc1c([C@H](OC(C)(C)C)C(=O)O)c(-c2ccc(Cl)cc2)c2cc(C)n3c2c1N(S(C)(=O)=O)CC3 [Compound I-019],,,,16,,,"(−) (When a shifted IC was 1.0 or less, this was defined as negative)",1.6,,6.6,1.2,
Cc1ccc(-c2c([C@H](OC(C)(C)C)C(=O)O)c(C)c3c4c2cc(C)n4CCN3C)cc1 [Compound I-001],0.69,1.1,4.7,13,,"(−) (negative criteria (−), PI<10% and changes in absorbance at 630 nm<0.05, respectively)",,,,,,
Cc1nc(N2CCn3c(C)cc4c(-c5ccc(Cl)cc5)c([C@H](OC(C)(C)C)C(=O)O)c(C)c2c43)no1 [Compound I-176],,,,12,,"(−) (negative criteria (−), PI<10% and changes in absorbance at 630 nm<0.05, respectively)","(−) (When a shifted IC was 1.0 or less, this was defined as negative)",5.6,2.3,4.6,,
Cc1ccc(-c2c([C@H](OC(C)(C)C)C(=O)O)c(C)c3c4c2cc(C)n4CCN3c2ncc(OCF)cn2)cc1 [Compound I-282],1.4,2.1,4,36,,,,,,,,
Cc1c([C@H](OC(C)(C)C)C(=O)O)c(-c2ccc(F)cc2)c2cc(C)n3c2c1N(CCN(C)C)CC3 [Compound I-171],,24,62,1.4,,,,,,,,15
Cc1ccc(-c2c([C@H](OC(C)(C)C)C(=O)O)c(C)c3c4c2cc(C)n4CCN3c2ccc(C)nn2)cc1 [Compound I-287],1.4,2.2,5.1,12,,,,,,,,
COCCN1CCn2c(C)cc3c(-c4ccc(C)cc4)c([C@H](OC(C)(C)C)C(=O)O)c(C)c1c32 [Compound I-026],0.99,1.6,13,13,> 20000,,,,,,,
